Results reported in article PMC7391726, “Fatty acid mimetic PBI-4547 restores metabolic homeostasis via GPR84 in mice with non-alcoholic fatty liver disease” (Scientific Reports, 2020).

Legend:
PPARα = biological target: T1, PPARα (Homo sapiens, UniProt Q07869); experiment: LanthaScreen TR-FRET competitive binding assay, PPARα LBD; settings: Cheng-Prusoff; read-out: Ki inhibition constant, PPARα LBD
T1 construct: glutathione S-transferase (GST)-tagged human PPAR-LBD; purchased Fisher Scientific
T1 sequence (Q07869 239-466 limits assumed): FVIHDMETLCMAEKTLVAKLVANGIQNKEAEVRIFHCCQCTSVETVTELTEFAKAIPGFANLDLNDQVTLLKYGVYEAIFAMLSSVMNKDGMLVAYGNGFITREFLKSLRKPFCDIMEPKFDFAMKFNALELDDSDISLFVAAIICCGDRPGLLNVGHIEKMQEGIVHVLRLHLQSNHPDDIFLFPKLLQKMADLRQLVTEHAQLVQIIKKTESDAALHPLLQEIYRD
From the text: (§1) The peroxisome proliferator-activated receptors (PPARs), PPARα, PPARδ, and PPARγ are ligand-dependent transcription factors regulated by FAs, including MCFAs, which control expression of several key metabolism-associated genes. We thus characterized the binding and transcriptional activity of PBI-4547 to these receptors. A LanthaScreen TR-FRET competitive binding assay was used to determine the binding affinity of PBI-4547 in comparison to the full control agonists GW7647 (PPARα), GW0742 (PPARδ), and rosiglitazone (PPARγ).
(§2) The LanthaScreen time-resolved fluorescence resonance energy transfer (TR-FRET) PPARα, PPARδ and PPARγ competitive binding assay (Fisher Scientific) was performed according to the manufacturer’s protocol. […] The FRET signal was measured using an Infinite M1000 microplate reader by excitation at 332 nm and emission at 520 nm for fluorescein and 490 nm for terbium. Competitive ligand binding to PPAR is detected by a test compound’s ability to displace the Fluormone pan-PPAR Green from the LBD, which results in a decrease of the 520 nm/490 nm TR-FRET ratio. The inhibition constant (Ki) of the competitor ligand was calculated by applying the Cheng-Prusoff equation.

PPARγ = biological target: T2, PPARγ (Homo sapiens, UniProt P37231); experiment: LanthaScreen TR-FRET competitive binding assay, PPARγ LBD; settings: Cheng-Prusoff; read-out: Ki inhibition constant, PPARγ LBD
T2 construct: glutathione S-transferase (GST)-tagged human PPAR-LBD; purchased Fisher Scientific
T2 sequence (P37231 238-503 limits assumed): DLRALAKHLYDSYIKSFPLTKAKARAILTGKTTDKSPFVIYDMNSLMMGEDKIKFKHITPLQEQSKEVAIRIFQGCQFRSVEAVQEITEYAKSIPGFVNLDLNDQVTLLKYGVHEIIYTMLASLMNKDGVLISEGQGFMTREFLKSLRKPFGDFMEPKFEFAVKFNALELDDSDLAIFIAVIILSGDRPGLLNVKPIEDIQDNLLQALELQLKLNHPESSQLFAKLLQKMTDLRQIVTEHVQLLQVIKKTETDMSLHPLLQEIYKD
From the text: as §1, §2

- Ki (PPARα): 489 nM
- Ki (PPARγ): 88 nM
Structure (SMILES): CCCCCc1cc(CCCCC)cc(CC(=O)[O-])c1.[Na+] [PBI-4547, 2-[3,5-dipentylphenyl]acetate sodium salt]
